Test results: patent US20250205168A1, “METHOD FOR PRODUCING NUCLEIC ACID-ENCAPSULATED LIPID NANOPARTICLES, METHOD FOR PRODUCING PHARMACEUTICAL COMPOSITION CONTAINING SAID LIPID NANOPARTICLES, AND METHOD FOR INTRODUCING NUCLEIC ACID INTO CELL OR TARGET CELL” (NOF Corporation, priority 2022, published 2025)
“Also recorded” adds a separate entry of the source.

Assays:
[1] = mRNA encapsulation rate (Ribogreen assay); assay type: physicochemical; settings: 37° C. 5 min
Description: The particle size, polydispersity index (PdI), and mRNA encapsulation rate of the obtained nucleic acid-encapsulated nanoparticles were analyzed. The particle size and PdI were measured by the dynamic light scattering method using a Zetasizer (registered trademark). The mRNA encapsulation rate was measured by the Ribogreen (registered trademark) assay. […]
The particle size, polydispersity index (PdI), and mRNA encapsulation rate of the obtained nucleic acid-encapsulated nanoparticles were analyzed. The particle size and PdI were measured by the dynamic light scattering method using a Zetasizer (registered trademark). The mRNA encapsulation rate was measured by the Ribogreen (registered trademark) assay. As a result, mRNA was encapsulated at any incubation temperature, and no difference in the encapsulation rate was observed. The particle size of the obtained nucleic acid-encapsulated nanoparticles tended to increase with increasing incubation temperature (see FIG. 24 and FIG. 25).
The particle size, polydispersity index (PdI), and mRNA encapsulation rate of the obtained nucleic acid-encapsulated nanoparticles were analyzed. The particle size and PdI were measured by the dynamic light scattering method using a Zetasizer (registered trademark). The mRNA encapsulation rate was measured by the Ribogreen (registered trademark) assay. As a result, the encapsulation rate of mRNA tended to decrease with increasing salt concentration of the buffer (see FIG. 34 and FIG. 35).
The particle size, polydispersity index (PdI), and mRNA encapsulation rate of the obtained nucleic acid-encapsulated nanoparticles were analyzed. The particle size and PdI were measured by the dynamic light scattering method using a Zetasizer (registered trademark). The mRNA encapsulation rate was measured by the Ribogreen (registered trademark) assay. As a result, mRNA was encapsulated (see Table 5).
The particle size, polydispersity index (PdI), and mRNA encapsulation rate of the obtained nucleic acid-encapsulated nanoparticles or nucleic acid-encapsulated nanoparticles prepared by freeze-dry technique in Comparative Example 1 were analyzed. The particle size and PdI were measured by the dynamic light scattering method using a Zetasizer (registered trademark). The mRNA encapsulation rate was measured by the Ribogreen (registered trademark) assay. […] In addition, the particle size of the nucleic acid-encapsulated nanoparticles was smaller than that of nucleic acid-encapsulated nanoparticles produced by the freeze-dry technique (see FIG. 14 and FIG. 15).
The particle size, polydispersity index (PdI), and mRNA encapsulation rate of the obtained nucleic acid-encapsulated nanoparticles or nucleic acid-encapsulated nanoparticles prepared by freeze-dry technique in Comparative Example 2, Comparative Example 3 were analyzed. The particle size and PdI were measured by the dynamic light scattering method using a Zetasizer (registered trademark). The mRNA encapsulation rate was measured by the Ribogreen (registered trademark) assay. […] In addition, the particle size of the nucleic acid-encapsulated nanoparticles was smaller than that of nucleic acid-encapsulated nanoparticles produced by the freeze-dry technique (see FIG. 36 and FIG. 37). In FIG. 36, FIG. 37 and FIG. 38, Comparative Example 2 in which the total flow rate during preparation of lipid nanoparticles was 1 mL/min, is shown as “freeze-dry (FR=1)”, and Comparative Example 3, in which the total flow rate was 16 mL/min, is shown as “freeze-dry (FR=16)”.
The particle size, polydispersity index (PdI), and mRNA encapsulation rate of the obtained nucleic acid-encapsulated nanoparticles (liquid) or nucleic acid-encapsulated nanoparticles produced using a microfluidic channel (MF) (LNP prepared with the same lipid composition and using MES buffer (20 mM, pH 6.5) containing nucleic acid and an ethanol solution of lipid) were analyzed. […]

[2] = Zeta potential by electrophoretic light scattering (Zetasizer); assay type: physicochemical; settings: Example 10; particles produced using SS-OP at pH and pH 5.5 compared to pH 6, pH 6.5 and pH 7; measured in MES pH 5-7
Description: Among the obtained nucleic acid-encapsulated nanoparticles, the particles produced using SS-OP were analyzed for Zeta potential. Zeta potential was measured by the electrophoretic light scattering method using Zetasizer (registered trademark) and using MES buffer (pH 5, pH 5.5, pH 6, pH 6.5 or pH 7).

HeLa cells = assay: nucleic acid introduction into HeLa cells, luciferase luminescence (Steady-Glo, GloMax 20/20 luminometer); assay type: cell-based; settings: Example 10, particles produced using SS-OP, after 13 hr
Description: The nucleic acid-encapsulated nanoparticles obtained were applied to HeLa cells to evaluate the nucleic acid introduction efficiency. HeLa cells were seeded in D-MEM medium (high glucose) (containing L-glutamine and phenol red) (containing 10% FBS and 1% penicillin-streptomycin solution added) at 5×10^3 cells/100 μL in a 96-well flat-bottom transparent plate. The obtained nucleic acid-encapsulated particles were added such that the nucleic acid concentration in the medium was 0.02 μg/4 μL. After 16 hr, the amount of luciferase protein introduced was evaluated using the amount of luminescence. 100 μL of Steady-Glo (registered trademark) was added, and the cells were lysed by shaking for 5 min, and the amount of luminescence was quantified using a GloMax 20/20 luminometer. As a result, the introduction of luciferase protein was confirmed at any incubation temperatures, and no difference in in vitro activity was observed.
The nucleic acid-encapsulated nanoparticles obtained were applied to HeLa cells and the nucleic acid introduction efficiency was evaluated. […] After 13 hr, the amount of luciferase protein introduced was evaluated using the amount of luminescence. 100. μL of Steady-Glo (registered trademark) was added, and the cells were lysed by shaking for 5 min, and the amount of luminescence was quantified using a GloMax 20/20 luminometer. […]

[3] = Example 4, LNP in MES pH 5, 5.5, 6, 6.5 or 7, mRNA 1.5 μg/135 μL
[4] = Example 10, LNP and mRNA (3 μg/135 μL) in MES pH 5, 5.5, 6, 6.5 or 7

Row | Structure (SMILES) | encapsulation rate at higher pH, in words [1, 3] | encapsulation rate at higher pH, in words [1, 4] | Zeta potential, in words [2] | in vitro activity (luciferase luminescence) by pH of production, in words (HeLa cells)
1 | CCCCCCCC/C=C\CCCCCCCC(=O)OCC(CN(C)C)OC(=O)CCCCCCC/C=C\CCCCCCCC (stereo not shown) [DODAP, 1,2-dioleoyloxy-3-dimethylaminopropane, reference compound] | decreased at pH 6, pH 6.5, and pH 7 | decreased at pH 6.5 and pH 7 |  | 
2 | CCCCCC=CCC=CCCCCCCCCC(CCCCCCCCC=CCC=CCCCCC)OC(=O)CCCN(C)C (stereo not shown) [MC3, heptatriaconta-6,9,28,31-tetraen-19-yl-4-(dimethylamino)butanoate, reference compound] | decreased at pH 6.5 and pH 7 | decreased at pH 6.5 and pH 7 |  | 
3 | CCCCCCCC/C=C\CCCCCCCC(=O)OCCC1CCN(CCSCSCCN2CCC(CCOC(=O)CCCCCCC/C=C\CCCCCCCC)CC2)CC1 [SS-OC] | decreased at pH 6, pH 6.5, and pH 7 | decreased at pH 6.5 and pH 7 |  | 
4 | CCCCCCCC/C=C\CCCCCCCC(=O)Oc1ccc(CC(=O)OCCC2CCN(CCSSCCN3CCC(CCOC(=O)Cc4ccc(OC(=O)CCCCCCC/C=C\CCCCCCCC)cc4)CC3)CC2)cc1 [SS-OP] | decreased at pH 6.5 and pH 7 | decreased at pH 6.5 and pH 7 | higher values in a low pH environment | highest in vitro activity was observed at pH 6; also recorded: slightly decreasing at pH 6.5; also recorded: low activity was observed at pH 5, pH 5.5, and pH 7
